In patent US20230226137A1, “Novel Pharmaceutical Composition for Treating Dry Eye Syndrome” (Novacell Technology Inc., priority 2020, published 2023):
Non-standard residues stand in square brackets, D forms with d. Residues, ends and D or L forms follow the SMILES beside them. *: point of attachment. Octanoyl = CCCCCCCC(=O)*

Tests used:
Type in all cases: cell-based
Staphylococcus aureus = settings: 18 h
Procedure: (§1) In addition, in order to measure the antibacterial activity of the peptide, Staphylococcus aureus, which is a gram-positive bacterium, and Pseudomonas aeruginosa, which is a gram-negative bacterium, were prepared, followed by 4th smearing on a flat medium of an agar, and culturing was performed overnight in a 36° C. incubator. The next day, strain colonies generated on the agar plate medium were inoculated into 3 mL-nutrient broth and cultured overnight in a shaking incubator at 36° C. and 220 rpm. The next day, the bacteria were diluted to measure absorbance at 600 nm, the absorbance was adjusted to 0.5, and the bacteria were diluted in a nutrient broth at a ratio of 1:100. Then, the peptides prepared in the Example were sequentially diluted in a nutrient broth at concentrations of 0, 1.25, 2.5, 5, 10, 20, and 40 μM, prepared 1 mL each, and then 1 mL of the diluted bacteria was inoculated. Then, the mixture was stirred at 36° C. and 220 rpm and incubated for 18 hours, and then the absorbance was measured at 600 nm.

Pseudomonas aeruginosa = settings: 18 h
Procedure: as §1

FPR2 = target: T1, FPR2 (Homo sapiens, UniProt P25090); assay: FPR2 activation, intracellular calcium (Fura-2/AM) in RBL cells overexpressing FPR2; settings: calcium ion increase in FPR2-overexpressing RBL cells
T1 construct: expressed in transfected cells; host or cells: RBL cells (FPR2-overexpressing)
T1 sequence (P25090 1-351): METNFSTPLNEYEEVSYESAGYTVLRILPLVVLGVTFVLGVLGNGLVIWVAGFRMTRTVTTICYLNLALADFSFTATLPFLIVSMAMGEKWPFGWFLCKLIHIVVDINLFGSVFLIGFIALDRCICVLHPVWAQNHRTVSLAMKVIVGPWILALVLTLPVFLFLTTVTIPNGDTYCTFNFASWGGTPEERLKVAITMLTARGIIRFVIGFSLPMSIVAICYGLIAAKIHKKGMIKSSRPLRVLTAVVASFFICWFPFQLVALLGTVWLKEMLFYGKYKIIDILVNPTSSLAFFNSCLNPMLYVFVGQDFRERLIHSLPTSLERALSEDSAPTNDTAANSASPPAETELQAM
Procedure: The present inventors have observed changes in calcium ion permeability in order to confirm whether or not the immunomodulatory and antibacterial peptide candidates of the present invention activates the immunomodulatory function of a living organism. Specifically, the concentration of calcium ions in cells was measured in order to confirm whether the peptide activates FPR2. To this end, the present inventors used RBL cells in which FPR2 was not expressed, RBL cells in which FPR1 was overexpressed (FPR1-RBL), and RBL cells in which FPR2 was overexpressed, and used Fura-2/AM, a staining material having a strong binding affinity for calcium, in a method for sensitively measuring free intracellular calcium ions. That is, the cells were cultured in RPMI medium containing 10% fetal bovine serum, centrifuged in the mid-log phase (1-3×10^7 cells/mL), and harvested. Then, the cells were washed several times with RPMI medium containing no fetal bovine serum and resuspended in RPMI medium to a concentration of 1×10^7 cells/mL. Then, the Fura-2/AM at a final concentration of 3 μM was added thereto and incubated in an incubator (37° C., 5% CO2) for 45 minutes with continuous stirring. After the appropriate time elapsed, the cells were harvested and washed again several times with RPMI medium. Then, the cells were suspended in an appropriate amount of RPMI medium, in which sulfinpyrazone was supplemented at a concentration of 250 μM, so as to prevent the Fura-2 that entered into the cells from being released to the outside of the cells. Approximately 2×10^6 cells were taken each time and harvested by rapid centrifugation and resuspended in 1 mL of Locke solution in which EGTA was added but no calcium ions were added, and the absorbance ratios at two wavelengths of 340 nm and 380 nm were monitored on a spectrophotometer. After treating with the peptide according to the present invention at different concentrations (1 μM, 0.1 μM, and 0.01 μM) at intervals of about 1 minute, the difference in absorbance at two wavelengths was examined and this was later converted to the concentration of calcium ions freed into the cells according to the method of Grynkiewicz.

SMILES	IC50 (Staphylococcus aureus) [µM]	IC50 (Pseudomonas aeruginosa) [µM]	EC50 (FPR2) [nM]
CCCCCCCC(=O)N[C@@H](CCCCN)C(=O)N[C@@H](Cc1c[nH]c2ccccc12)C(=O)N[C@@H](CCCCN)C(=O)N[C@@H](Cc1c[nH]c2ccccc12)C(=O)N[C@@H](CCCNC(=N)N)C(=O)N[C@@H](Cc1ccc(O)cc1)C(=O)N[C@H](CCSC)C(N)=O [compound 4] (Octanoyl-KWKWRY[dM]-NH2)	12.3	8.48	108
CCCCCCCC(=O)N[C@@H](CCCCN)C(=O)N[C@@H](Cc1ccccc1)C(=O)N[C@@H](CCCCN)C(=O)N[C@@H](Cc1c[nH]c2ccccc12)C(=O)N[C@@H](CCCNC(=N)N)C(=O)N[C@@H](Cc1ccc(O)cc1)C(=O)N[C@H](CCSC)C(N)=O [compound 2] (Octanoyl-KFKWRY[dM]-NH2)	21	4.69	92.9
CCCCCCCC(=O)N[C@@H](CCCNC(=N)N)C(=O)N[C@@H](Cc1c[nH]c2ccccc12)C(=O)N[C@@H](CCCNC(=N)N)C(=O)N[C@@H](Cc1c[nH]c2ccccc12)C(=O)N[C@@H](CCCNC(=N)N)C(=O)N[C@@H](Cc1ccc(O)cc1)C(=O)N[C@H](CCSC)C(N)=O [compound 5] (Octanoyl-RWRWRY[dM]-NH2)	4.86	25.4	90.7
CSCC[C@@H](NC(=O)[C@H](Cc1ccc(O)cc1)NC(=O)[C@H](CCCNC(=N)N)NC(=O)[C@H](Cc1c[nH]c2ccccc12)NC(=O)[C@H](CCCNC(=N)N)NC(=O)[C@H](Cc1c[nH]c2ccccc12)NC(=O)[C@@H](N)CCCNC(=N)N)C(N)=O [compound 6] (H-RWRWRY[dM]-NH2)	39.9	6.43	30.3
CSCC[C@@H](NC(=O)[C@H](Cc1ccc(O)cc1)NC(=O)[C@H](CCCNC(=N)N)NC(=O)[C@H](Cc1c[nH]c2ccccc12)NC(=O)[C@H](CCCCN)NC(=O)[C@H](Cc1ccccc1)NC(=O)[C@@H](N)CCCCN)C(N)=O [compound 3] (H-KFKWRY[dM]-NH2)	19.8	7.41	65.4
